# From paper PMC9598656, “In Vitro Activity of Robenidine Analogues NCL259 and NCL265 against Gram-Negative Pathogens” (Antibiotics, 2022)
# Legend:
# Type in all cases: cell-based
# [1] = system: Hep G2 (human hepatocellular carcinoma cell line); test: In vitro cytotoxicity, WST-1; settings: HepG2, 24 h
# Text: (§1) Potential toxicity of NCL259 and NCL265 to mammalian cells relative to the parent compound (NCL812) was examined using Caco-2 (human colorectal adenocarcinoma cell line), HEL 299 (non-cancerous human lung fibroblast cell line), Hep G2 (human hepatocellular carcinoma cell line), MCF-7 (human mammary gland adenocarcinoma cell line), MDBK (normal Madin–Darby bovine kidney cell line) and Vero (normal adult African green monkey cell line), essentially as described previously. Toxicity to the cell lines was performed using serial two-fold dilutions of each compound from 128 to 1 μg/mL in duplicates in flat bottom 96 well tissue culture trays (Sarstedt 83.3924) containing approximately 2 × 10^4 cells per well in antibiotic-free Dulbecco’s Modified Eagle’s Medium (DMEM; Gibco Cat No: 12430; Thermo Fisher Scientific, Scoresby, VIC, Australia) consisting of 10% (v/v) fetal bovine serum at 37 °C, 5% CO2 for 24 h. Duplicate wells containing ampicillin at 128 to 1 μg/mL were used as controls. Thereafter, 10% (v/v) of the WST-1 cell proliferation assay reagent (Cat No: 05015944001; Roche Life Science, North Ryde, NSW, Australia) was added to each well, the trays were further incubated at 37 °C, 5% CO2 for 1 h and absorbance read at A450nm on a Multiskan Ascent 354 Spectrophotometer (Labsystems, Lilydale, VIC, Australia). The inhibitory concentration of each compound was determined as the half maximal inhibitory concentration (IC50) at A450nm.
# [2] = system: MCF-7 (human mammary gland adenocarcinoma cell line); test: In vitro cytotoxicity, WST-1; settings: MCF7, 24 h
# Text: as §1
# [3] = system: HEL 299 (non-cancerous human lung fibroblast cell line); test: In vitro cytotoxicity, WST-1; settings: HEL 299, 24 h
# Text: as §1
# [4] = system: Vero (normal adult African green monkey cell line); test: In vitro cytotoxicity, WST-1; settings: Chlorocebus sabaeus, 24 h
# Text: as §1
# [5] = system: MDBK (normal Madin–Darby bovine kidney cell line); test: In vitro cytotoxicity, WST-1; settings: Bos taurus, 24 h
# Text: as §1
# [6] = system: sheep red blood cells (SRBCs); test: Hemolysis assay; settings: 1 h
# Procedure: The haemolytic activity of the compounds was determined using 1% sheep red blood cells (SRBCs), as described previously. […]. After incubation at 37 °C with shaking at 100 rpm for 1 h, the trays were centrifuged at 1000× g for 3 min and 100 μL of supernatant from each well was transferred into a new 96-well tray. Absorbance was measured at A450nm on a Multiskan Ascent 354 Spectrophotometer (Labsystems) and plotted against each dilution. The haemolytic titre (HC50) of each compound was determined as the reciprocal of the dilution at which 50% of SRBCs were lysed at A450nm.
# [7] = system: Caco-2 (human colorectal adenocarcinoma cell line); test: In vitro cytotoxicity, WST-1; settings: Caco-2, 24 h
# [8] = first of two independent experiments
# [9] = second of two independent experiments
Structure (SMILES),"IC50 [1, 8] [µg/mL]","IC50 [1, 9] [µg/mL]","IC50 [2, 8] [µg/mL]","IC50 [2, 9] [µg/mL]","IC50 [3, 8] [µg/mL]","IC50 [3, 9] [µg/mL]","IC50 [4, 8] [µg/mL]","IC50 [4, 9] [µg/mL]","IC50 [5, 8] [µg/mL]","IC50 [5, 9] [µg/mL]","HC50 ([6]; 1% SRBC, first of two independent experiments)","HC50 ([6]; 1% SRBC, second of two independent experiments)",HC50 ([6]; sheep),"IC50 [7, 8] [µg/mL]","IC50 [7, 9] [µg/mL]"
"CC1(C)S[C@@H]2[C@H](NC(=O)[C@H](N)c3ccccc3)C(=O)N2[C@H]1C(=O)O [Ampicillin, reference compound]",> 128,> 128,> 128,> 128,> 128,> 128,> 128,> 128,> 128,> 128,">128, >128 μg/mL",">128, >128 μg/mL",,,
"N=C(N/N=C/c1ccc(Cl)cc1)N/N=C/c1ccc(Cl)cc1 [NCL812, Robenidine]",6,8,8,12,8,6,8,4,8,12,,,"32, 32 μg/mL",8,12
